The record followed here is patent publication US20160052937A1, “Tetrahydroimidazo[1,5-d][1,4]oxazepine compound” (Eisai R&D Management Co., Ltd., priority 2014, published 2016).

pIC50: −log10 of the molar value.

T1 sequence (Q14416 19-872): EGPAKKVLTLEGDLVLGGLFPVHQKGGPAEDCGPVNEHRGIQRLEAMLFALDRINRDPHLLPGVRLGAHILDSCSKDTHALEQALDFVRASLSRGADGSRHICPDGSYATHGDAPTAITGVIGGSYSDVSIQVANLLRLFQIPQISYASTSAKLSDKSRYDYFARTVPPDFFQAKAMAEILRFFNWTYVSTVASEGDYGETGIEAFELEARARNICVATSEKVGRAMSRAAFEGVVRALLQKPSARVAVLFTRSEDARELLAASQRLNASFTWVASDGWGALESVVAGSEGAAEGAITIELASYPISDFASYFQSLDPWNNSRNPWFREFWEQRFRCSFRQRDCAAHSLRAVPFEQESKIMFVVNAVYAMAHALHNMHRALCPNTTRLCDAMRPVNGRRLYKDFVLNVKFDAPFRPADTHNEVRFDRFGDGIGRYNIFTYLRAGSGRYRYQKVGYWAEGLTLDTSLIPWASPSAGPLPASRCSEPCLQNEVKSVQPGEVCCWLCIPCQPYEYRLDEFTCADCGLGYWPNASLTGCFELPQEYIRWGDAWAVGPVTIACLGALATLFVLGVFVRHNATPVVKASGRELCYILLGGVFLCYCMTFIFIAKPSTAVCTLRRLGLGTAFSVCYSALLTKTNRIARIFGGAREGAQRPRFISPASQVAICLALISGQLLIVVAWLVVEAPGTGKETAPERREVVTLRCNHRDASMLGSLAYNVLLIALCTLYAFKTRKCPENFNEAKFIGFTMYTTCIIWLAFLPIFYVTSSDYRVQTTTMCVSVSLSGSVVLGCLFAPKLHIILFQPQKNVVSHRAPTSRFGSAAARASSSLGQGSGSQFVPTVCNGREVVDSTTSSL

In the first test the test system is Long-Evans rats, cognitive impairment induced by scopolamine. Briefly: Novel object recognition (NOR) test in rats. It is filed as in vivo, rat. The note with it: oral; scopolamine hydrobromide 0.3 mg/kg i.p.; statistically significant difference in discrimination index vs scopolamine alone group. Here is the method:
Six-week old male Long-Evans rats were used for this test. For 2 days before starting the test, the rats were acclimated to experimental operations such as administration and a test device (that is, a black or gray plastic cage with a width of 40 cm, a depth of 30 cm and a height of 45 cm). Each test compound was dissolved in a 0.1 N hydrochloric acid to be orally administered. Thirty minutes after the administration, scopolamine hydrobromide was intraperitoneally administered at a 0.3 mg/kg dose, so as to induce cognitive impairment. After another 30 minutes, each rat was acclimated in the test device for 3 minutes, and thereafter, two blocks in the same shape were put in the test device as acquisition trial, and exploring time for each block was measured for 5 minutes. Two hours after the acquisition trial, the rat was acclimated in the test device for 3 minutes, and thereafter, the same block as those used in the acquisition trial and a new block in a different shape were put in the cage for retention trial. The exploring time for each block was measured for 3 minutes, and a ratio of the exploring time for the newly used block to the sum of the exploring times for the respective blocks was calculated as a discrimination index. The thus obtained discrimination indexes were compared among a group of rats to which a medium alone was administered (medium group), a group of rats to which scopolamine alone was administered (scopolamine alone group) and a group of rats to which both the test compound and scopolamine were administered, so as to evaluate the action of the test compound on the novel object recognition function (cognitive function) of the rats.
Each discrimination index was shown as an average and a standard error. The statistical significance between the medium group and the scopolamine alone group was analyzed by the independent t-test. The statistical significance between the scopolamine alone group and each sample group was analyzed by one-way analysis of variance and then by Dunnett's multiple comparison test. The significance level was set to 5% on both sides. […] The analysis was carried out by using Prism 5 for Windows for Japanese, ver. 5.03. A minimum effective dose at which a statistically significant difference was found between a group suffering from the cognitive impairment induced by scopolamine and a group treated with each compound is shown in Table 4.
For the compound `COc1ccc(-c2nc(-c3ccc(S(=O)(=O)NC(C)C)cc3)c3n2C[C@@H](C)OCC3)cc1` [Example 8, (R)—N-isopropyl-4-(3-(4-methoxyphenyl)-6-methyl-5,6,8,9-tetrahydroimidazo[1,5-d][1,4]oxazepin-1-yl)benzenesulfonamide], the Minimum effective dose is 3 mg/kg, p.o.
Same read-out and setting: to `CC(C)NS(=O)(=O)c1ccc(-c2nc(-c3ccc(F)cc3)n3c2CCO[C@H](C)C3)cc1` [Example 1, (R)-4-(3-(4-fluorophenyl)-6-methyl-5,6,8,9-tetrahydroimidazo[1,5-d][1,4]oxazepin-1-yl)-N-isopropylbenzenesulfonamide] belongs 1 mg/kg, p.o.

Another test has as its target T1, human metabotropic glutamate receptor 2 (mGluR2) (Homo sapiens, UniProt Q14416).
T1 construct: expressed in transfected cells; co-expressing human SLC1A3), cell membrane fraction
Briefly: [35S]GTPγS binding assay (Affinity to mGluR2). The note with it: cell membrane fraction of HEK293 cells stably expressing human mGluR2; glutamic acid 10 μM. Format: biochemical. On the procedure:
(Preparation of Cell Membrane Fraction of HEK293 Cells Stably Expressing Human Metabotropic Glutamate Receptor 2 (mGluR2))
HEK293 cells stably expressing human mGluR2 and human glutamate transporter SLC1A3 were cultured in a Dulbecco's modified Eagle's medium with 10% fetal bovine serum (50 units/mL of penicillin, 50 μg/mL of streptomycin, 60 μg/mL of geneticin, 400 μg/mL of hygromycin B and 2 mM of glutamine) at 37° C. under 5% CO2. Confluent cell cultures were washed twice with PBS(−), and then scraped off with a cell scraper, and subjected to centrifugal separation at 4° C. and 1500 rpm for 5 minutes for collecting cells. The centrifuged sediment (cell pellet) was homogenized in a 20 mM HEPES buffer containing 10 mM EDTA (pH 7.4) by using sonicator and centrifuged at 4° C. and 1500×g for 30 minutes. The supernatant (soluble fraction) was subjected to the centrifugal separation at 4° C. and 40,000×g for 30 minutes, and thus, insoluble fraction was obtained. After additional centrifugally washing the obtained fraction with 20 mM HEPES buffer containing 10 mM EDTA (pH 7.4), the pellet was centrifugally suspended with a 20 mM HEPES buffer containing 0.1 mM EDTA, and the cell membrane fraction was obtained by the centrifugal separation at 4° C. and 40,000×g for 30 minutes. The thus obtained cell membrane fraction was suspended in a 20 mM HEPES buffer containing 0.1 mM EDTA in a protein concentration of 3 mg/mL, which was stored at −80° C.
([^35S]GTPγS binding assay)
The frozen cell membrane fraction prepared as described above was thawed before use, and the resultant was diluted with a buffer for a binding assay (final concentrations: 20 mM HEPES, 100 mM NaCl, 1 mM MgCl2, 3 μM GDP, 300 μg/mL saponin, 0.1% BSA). The compound of each example was added to a cell membrane fraction containing 1.8 to 3 μg/assay of membrane protein on a plate, followed by incubation at room temperature for 30 minutes. Thereafter, with glutamic acid (in a final concentration of 10 μM) added thereto, incubation was performed at room temperature for 15 minutes, and thereafter, [^35S]GTPγS (in a final concentration of 0.8 kBq) and 588 μg WGA-SPA beads were added thereto, followed by incubation at room temperature for 1 hour. After the incubation, the plate was subjected to the centrifugal separation at 2,500 rpm and room temperature, and then, membrane cell binding radioactivity was measured with a top count.
A [^35S]GTPγS binding amount obtained by performing the above-described reaction in the absence of glutamic acid was defined as nonspecific binding, and a difference from a [^35S]GTPγS binding amount obtained in the presence of glutamic acid was defined as specific binding. On the basis of ratios of inhibiting the specific binding at various concentrations of the compounds of the respective examples, inhibition curves were obtained. Concentrations of the compounds of the respective examples at which the specific [^35S]GTPγS binding amount was suppressed by 50% (IC50 values) were calculated on the basis of the inhibition curves and shown in Table 3.
Take `COc1ccc(-c2nc(-c3ccc(S(=O)(=O)NC(C)C)cc3)c3n2C[C@@H](C)OCC3)cc1` [Example 8, (R)—N-isopropyl-4-(3-(4-methoxyphenyl)-6-methyl-5,6,8,9-tetrahydroimidazo[1,5-d][1,4]oxazepin-1-yl)benzenesulfonamide]: the pIC50 is 8.51.
Regarding `CC1Cn2c(-c3ccc(OCF)cc3)nc(-c3ccc(S(=O)(=O)NC4(C)CCC4)cc3)c2CCO1` (stereo not drawn) [Example 22], the pIC50 is 8.51.
Turning to `C[C@@H]1Cn2c(-c3ccc(F)cc3)nc(-c3ccc(S(=O)(=O)NC4CCC4)cc3)c2CCO1` [Example 37], the pIC50 is 8.64.
As to `COc1ccc(-c2nc(-c3ccc(S(=O)(=O)NC(C)(C)C)cc3)c3n2C[C@@H](C)OCC3)cc1` [Example 10], the negative-log IC50 (pIC50) was 8.74.
Compound `C[C@@H]1Cn2c(-c3ccc(OC(F)F)c(F)c3)nc(-c3ccc(S(=O)(=O)NC(C)(C)C)cc3)c2CCO1` [Example 66] had a pIC50 of 7.96.
`CNS(=O)(=O)c1ccc(-c2nc(-c3ccc(OC)cc3)n3c2CCO[C@H](C)C3)cc1` [Example 29] had a negative logarithm of the IC50 (pIC50) of 7.57.
As for `CC(C)NS(=O)(=O)c1ccc(-c2nc(-c3ccc(OCF)cc3)n3c2CCO[C@H](CF)C3)cc1` [Example 51], the pIC50 is 7.92.
The compound `CCOc1ccc(-c2nc(-c3ccc(S(=O)(=O)NC(C)(C)C)cc3)c3n2C[C@@H](CF)OCC3)cc1` [Example 55] gave a pIC50 of 8.54.
`CC(C)NS(=O)(=O)c1ccc(-c2nc(-c3ccc(F)cc3)n3c2CCO[C@H](C)C3)cc1` [Example 1, (R)-4-(3-(4-fluorophenyl)-6-methyl-5,6,8,9-tetrahydroimidazo[1,5-d][1,4]oxazepin-1-yl)-N-isopropylbenzenesulfonamide] showed a pIC50 of 8.43.
Turning to `COc1ccc(-c2nc(-c3ccc(S(=O)(=O)NC4(C)CCC4)cc3)c3n2C[C@@H](CF)OCC3)cc1` [Example 45], the pIC50 is 8.66.
Regarding `O=S(=O)(NC1CCC1)c1ccc(-c2nc(-c3ccc(OC(F)F)cc3)n3c2CCO[C@H](CF)C3)cc1` [Example 60], the pIC50 is 8.34.
`CC(C)NS(=O)(=O)c1ccc(-c2nc(-c3ccc(OCF)cc3)n3c2CCO[C@H](C)C3)cc1` [Example 4] gave a pIC50 of 8.48.
On the same count and under the same terms, to `CC1(NS(=O)(=O)c2ccc(-c3nc(-c4ccc(F)cc4)n4c3CCO[C@H](CF)C4)cc2)CCC1` [Example 39] belongs 9.05; to `CCOc1ccc(-c2nc(-c3ccc(S(=O)(=O)NC)cc3)c3n2C[C@@H](C)OCC3)cc1` [Example 34], 8.15.
`CCNS(=O)(=O)c1ccc(-c2nc(-c3ccc(OCF)cc3)n3c2CCO[C@H](CF)C3)cc1` [Example 56]: the pIC50 is 7.97.
With `COc1ccc(-c2nc(-c3ccc(S(=O)(=O)NC4CC4)cc3)c3n2C[C@@H](C)OCC3)cc1` [Example 28], the pIC50 was 8.13.
Same read-out and setting: to `CC(C)NS(=O)(=O)c1ccc(-c2nc(-c3ccc(OC(F)F)cc3)n3c2CCO[C@H](C)C3)cc1` [Example 12] belongs 8.85; to `CNS(=O)(=O)c1ccc(-c2nc(-c3ccc(F)cc3)n3c2CCO[C@H](C)C3)cc1` [Example 14], 8.01; to `Cc1ccc(-c2nc(-c3ccc(S(=O)(=O)NC(C)C)cc3)c3n2C[C@@H](C)OCC3)cc1F` [Example 65], 8.17.
Still for that read-out and setting: to `CCNS(=O)(=O)c1ccc(-c2nc(-c3ccc(F)cc3)n3c2CCO[C@H](CF)C3)cc1` [Example 42] belongs 8.01; to `COc1ccc(-c2nc(-c3ccc(S(=O)(=O)NC(C)C)cc3)c3n2C[C@@H](C)OCC3)cc1F` [Example 62, (R)—N-isopropyl-4-(3-(3-fluoro-4-methoxyphenyl)-6-methyl-5,6,8,9-tetrahydroimidazo[1,5-d][1,4]oxazepin-1-yl)benzenesulfonamide], 8.37.
In turn, `CNS(=O)(=O)c1ccc(-c2nc(-c3ccc(OCF)cc3)n3c2CCO[C@H](C)C3)cc1` [Example 20] had a pIC50 of 7.66.
Compound `CC(C)NS(=O)(=O)c1ccc(-c2nc(-c3ccc(OC4COC4)cc3)n3c2CCOC(C)C3)cc1` (stereo not drawn) [Example 11] had a pIC50 of 8.15.
Same read-out and setting: to `CCNS(=O)(=O)c1ccc(-c2nc(-c3ccc(OCC)cc3)n3c2CCO[C@H](CF)C3)cc1` [Example 50] belongs 8.02; to `COc1ccc(-c2nc(-c3ccc(S(=O)(=O)NC4CC4)cc3)c3n2C[C@@H](CF)OCC3)cc1` [Example 47], 8.20.
Turning to `CCOc1ccc(-c2nc(-c3ccc(S(=O)(=O)NC4CC4)cc3)c3n2C[C@@H](C)OCC3)cc1` [Example 32], the pIC50 was 8.41.
Consider `C[C@@H]1Cn2c(-c3ccc(OC(F)F)cc3)nc(-c3ccc(S(=O)(=O)NC(C)(C)C)cc3)c2CCO1` [Example 9], for which the negative logarithm of the IC50 (pIC50) is 8.57.
Still for that read-out and setting: to `CC(C)NS(=O)(=O)c1ccc(-c2nc(-c3ccc(OC(F)F)cc3)n3c2CCO[C@H](CF)C3)cc1` [Example 53] belongs 8.33; to `CC(C)(C)NS(=O)(=O)c1ccc(-c2nc(-c3ccc(OC(F)F)cc3)n3c2CCO[C@H](CF)C3)cc1` [Example 54], 8.31; to `CC1Cn2c(-c3ccc(F)cc3)nc(-c3ccc(S(=O)(=O)NC4(C)CCC4)cc3)c2CCO1` (stereo not drawn) [Example 17], 8.64.
Same read-out and setting: to `COc1ccc(-c2nc(-c3ccc(S(=O)(=O)NC(C)(C)C)cc3)c3n2C[C@@H](C)OCC3)cc1F` [Example 63] belongs 8.41; to `COc1ccc(-c2nc(-c3ccc(S(=O)(=O)NC4(C)CCC4)cc3)c3n2CC(C)OCC3)cc1` (stereo not drawn) [Example 31], 8.52; to `CCNS(=O)(=O)c1ccc(-c2nc(-c3ccc(OC)cc3)n3c2CCO[C@H](C)C3)cc1` [Example 30], 8.13.
Turning to `CC(C)(C)NS(=O)(=O)c1ccc(-c2nc(-c3ccc(OCF)cc3)n3c2CCO[C@H](CF)C3)cc1` [Example 52], the negative-log IC50 (pIC50) is 8.39.
For the compound `C[C@@H]1Cn2c(-c3ccc(OCF)cc3)nc(-c3ccc(S(=O)(=O)NC4CCC4)cc3)c2CCO1` [Example 19], the pIC50 is 8.20.
The compound `CCNS(=O)(=O)c1ccc(-c2nc(-c3ccc(OCC)cc3)n3c2CCO[C@H](C)C3)cc1` [Example 35] showed a pIC50 of 8.74.
`CCNS(=O)(=O)c1ccc(-c2nc(-c3ccc(OC(F)F)cc3)n3c2CCO[C@H](C)C3)cc1` [Example 26] showed a pIC50 of 8.43.
